Reference: patent US11826369B2, “Targeting the TLK1/NEK1 axis in prostate cancer” (Board of Supervisors of Louisiana State University and …, priority 2019, dated 2023)
Values joined by “and” are separate entries in the source; they are usually repeats but may differ in a detail not shown here. Equal values may be shown once.

Legend:
[1] = system: LNCaP xenografts; experiment: LNCaP xenograft model; format: in vivo, NOD/SCID mice; conditions: IP bi-weekly
Procedure: Treatment started 19 days after implantation when the tumors measure ˜200 mm^3. Two independent experiment with 5 mice per group were carried out. J54 and Bicalutamide was dissolved in DMSO and diluted in corn oil 1:10 and administered IP bi-weekly. Sectioning and processing of the tissues were carried out in the FWCC Histology Service, using automated processes and equipment to provide uniform and standardized results. Indirect labeling was with ABC Elite: RTU Vectastain Elite Reagent, Vector #PK-7100; DAB: ImmPact DAB, Vector #SK-4105. Light counterstaining was done with hematoxylin. […] Note the weak pNek1 stain in the tumor from mice treated with J54, in contrast to the increase seen with BIC.
LNCaP Xenograft Model and Immunohistochemistry (IHC): All animals used in this study were approved by LSUHSC IACUC and following ARRIVE guidelines. Male NOD/SCID mice (5 per group) were purchased from Jackson labs. LNCaP cells were injected as described earlier. Mice were treated IP bi-weekly with J54 (5 mg/kg body weight—dose estimation derived from pharmacokinetics study) and/or Bicalutamide (100 mg/kg).
(§1) The inventors sought to establish if the addition of J54 could suppress the resurgence of tumor growth of LNCaP xenografts and their latter conversion to CRPC. Following formation of sizeable tumors (˜200 mm^3), castration or anti-androgens arrest the progression of LNCaP xenografts for some time (2-3 weeks), while subsequently the tumors start growing again at an accelerated rate which is refractory to ADT (AI). Therefore, the inventors injected LNCaP cells in matrigel in both flanks of NOD-SCID mice, and then randomly assigned them to four treatment groups (n=5 per group×2 independent experiments), as shown in FIGS. 13A-13C. […] The inventors should also point out that the inventors treated the mice with J54 only bi-weekly due to the favorable pharmacokinetics, where maximal plasma concentration of 100 ng/ml ([…]) were reached 2 h after IP injection, and was still present at −6 ng/ml (6 μM) after 24 h (FIG. 18A-18C).

[2] = system: LNCaP and TRAMP-C2 cells; experiment: Early change in cell number (MTT assay) over 72 h; format: cell-based; conditions: J54 alone
Procedure: (§2) All experiments were conducted in triplicates. […] The cells were grown for 2-3 weeks and stained with crystal violet. All experiments were conducted in triplicates. […] The cell lines used were human “normal” RWPE-1, LNCaP, (LNCaP-derivative) C4-2B, 22RV1, DU14, PC3, and mouse TRAMP-C2. FIGS. 11C and 11D show cell proliferation of LNCaP and TRAMP-C2 were determined during a 3 days incubation with different concentration of J54 (MTS assay). All experiments were conducted in triplicates. […] Representative analysis of two independent experiments are shown.
(§3) J54 in combination with anti-androgen (Bicalutamide) induces apoptosis in AS PCa cells. […] The inventors thus tested the same panel of cells in androgen containing medium (FBS) by proliferation assays. […] Note that VCaP cells were 60% inhibited by J54 alone, consistent with their elevated replication stress-driven DDR and checkpoint activation (FIG. 12E), which when suppressed with J54 could lead to apoptosis. Clonogenic assays are unable to distinguish the effects of a DNA damaging agent, which can result in either an impaired or delayed resumption of growth (cell division) or loss of viability due to increased killing of the initial population. The inventors thus measured in LNCaP and TRAMP-C2 cells the early change in cell number (MTT assay) over 72 h with J54 alone.

[3] = system: LNCaP, C4-2B, 22RV1, DU14, PC3, TRAMP-C2; experiment: Cell proliferation assays of PCa cell line panel; format: cell-based; conditions: androgen containing medium (FBS)
Procedure: as §2, §3

[4] = Pharmacokinetics, plasma distribution after IP injection; format: in vivo, mice
Excerpt: FIGS. 18A-18C show pharmacokinetics plasma distribution of J54.
as §1

[5] = system: VCaP cells; experiment: Clonogenic assay, VCaP; format: cell-based; conditions: J54 alone
Procedure: as §2, §3

[6] = system: p-Nek1-T141 in LNCaP, VCaP, TRAMP-C2; experiment: Western blots of checkpoint and apoptotic markers; format: cell-based; conditions: with or without BIC, all 3 AS cell lines
Procedure: LNCaP, VCaP, and TRAMP-C2 cells from the four treatment groups as indicated were analyzed by WB for several indicators of DNA damage/apoptosis and mediators of cell cycle arrest. Representative analysis of two independent experiments for each cell line are shown
J54 with Bicalutamide suppresses the checkpoint markers and induces apoptotic markers. LNCaP, VCaP, and TRAMP-C2 are the main examples of established PCa cell lines that are initially AS, but when maintained in ADT condition, recapitulate the conversion to AI growth observed in patients, and start growing again. In the initial phase of ADT, they arrest cell division, primarily at the G1/S transition, and become quiescent, which is a protective effect from undergoing replication forks collapse upon inhibition of the licensing function of the AR. […] The inventors were also able to reproduce that the expression of TLK1B was induced in LNCaP and TRAMP-C2 following the addition of BIC. […] The VCaP cells were a little different because even without any BIC, p-ATR and p-Chk1 were already elevated. This has been observed before and attributed to a constitutive DDR activation due to the TMPRSS2-ERG fusion in these cells.

[7] = General assessment of mice following injections; format: in vivo
Excerpt: We then did a general assessment of mice following injections of J54. […] To get a better assessment of the possible behavioral effects of J54, the inventors used C. elegans that has a simple but complete nervous system and has been well characterized for its responses to anti-psychotic drugs, including actions at serotonin or dopamine receptors.

Structure (SMILES): c1ccc2c(c1)Sc1ccccc1N2CCN1CCOCC1 [J54, 4-(2-(10H-phenothiazin-10-yl)ethyl) morpholine]
- tumor weight ([1]; end of treatment): significant suppression
- tumor growth ([1]; J54 5 mg/kg, Bicalutamide 100 mg/kg): significant suppression
- change in cell number [2]: actual loss in cell counts in relation to the dose
- concentration of maximal efficacy [3]: around 18 μM
- inhibition of proliferation [3]: weak dose-dependent inhibition
- maximal plasma concentration ([4]; IP injection): 100 ng/ml and 35 μM
- time of maximal plasma concentration ([4]; after IP injection): 2 h
- concentration at 24 h ([4]; mouse, plasma, IP injection): 6 µM
- inhibition of colony formation [5]: 60%
- p-Nek1-T141 level [6]: reduction in the p-Nek1-T141
- toxicity ([7]; incl. gross inspection of organs at necropsy): no toxicity
- behavioral changes ([7]; mouse, in vivo): no behavioral changes
- body weight ([7]; mouse, in vivo): no decrease in body weight
